Here are results for 28 molecules from patent USRE50082E1, “(5,6-dihydro)pyrimido[4,5-e]indolizines” (NETHERLANDS TRANSLATIONAL RESEARCH CENTER B.V., priority 2014, dated 2024).

A value given as a limit tells only on which side of the number the result lay.

The test has as its system MOLT-4 cancer cell line. Nature of the test: Cell proliferation assay, MOLT-4 cancer cell line (ATPlite).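 Note: luminescence read-out, percent growth versus compound-free DMSO wells as maximum growth, start-of-incubation signal separating growth from cell death, IC50 from logistic curve fit.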 It counts as cell-based. As to conditions: Homo sapiens, MOLT-4; 72 hours incubation, ATPlite 1Step; read-out: IC50 MOLT-4 cell proliferation. A general note: In ATP-based viability assays light output follows the ATP content of the culture.

As to `COc1cc(OC2CCN(C)CC2)ccc1Nc1ncc2c(n1)-n1ccc(C(=O)Nc3c(C)cccc3Br)c1CC2` [Example 42, N-(2-bromo-6-methyl-phenyl)-2-[2-methoxy-4-[(1-methyl-4-piperidyl)oxy]anilino]-5,6-dihydropyrimido[4,5-e]indolizine-7-carboxamide], the IC50 was under 50 nM.

On to `Cc1cccc(C)c1NC(=O)c1ccn2c1CCc1cnc(Nc3ccc(C(=O)NC4CCN(C)CC4)cc3F)nc1-2` [Example 7, N-(2,6-dimethylphenyl)-2-[2-fluoro-4-[(1-methyl-4-piperidyl)carbamoyl]anilino]-5,6-dihydropyrimido[4,5-e]indolizine-7-carboxamide], for which the IC50 lay in the range of 50 to 150 nM.

In the case of `Cc1cc(N2CCN(C)CC2)ccc1Nc1ncc2c(n1)-n1ccc(C(=O)Nc3c(C)cccc3Cl)c1CC2` [Example 2, N-(2-chloro-6-methyl-phenyl)-2-[2-methyl-4-(4-methylpiperazin-1-yl)anilino]-5,6-dihydropyrimido[4,5-e]indolizine-7-carboxamide], the IC50 is under 50 nM.

As for `CCc1nn(CCOC)c(CC)c1NC(=O)c1ccn2c1CCc1cnc(Nc3ccc(C(=O)N(C)CCCN(C)C)cc3OC)nc1-2` [Example 88, N-[3,5-diethyl-1-(2-methoxyethyl)pyrazol-4-yl]-2-[4-[3-(dimethylamino)propyl-methyl-carbamoyl]-2-methoxy-anilino]-5,6-dihydropyrimido[4,5-e]indolizine-7-carboxamide], the IC50 was 50 to 150 nM.

With `CCc1cccc(CC)c1NC(=O)c1ccn2c1CCc1cnc(Nc3ccc(N4CCNCC4)cc3OC)nc1-2` [Example 76, N-(2,6-diethylphenyl)-2-(2-methoxy-4-piperazin-1-yl-anilino)-5,6-dihydropyrimido[4,5-e]indolizine-7-carboxamide], the IC50 was under 50 nM.

On to `CCOc1cc(N2CCN(C)CC2)ccc1Nc1ncc2c(n1)-n1ccc(C(=O)Nc3c(C)cccc3CC)c1CC2` [Example 32, 2-[2-Ethoxy-4-(4-methylpiperazin-1-yl)anilino]-N-(2-ethyl-6-methyl-phenyl)-5,6-dihydropyrimido[4,5-e]indolizine-7-carboxamide], for which the IC50 was 50 to 150 nM.

In the case of `CCc1n[nH]c(CC)c1NC(=O)c1ccn2c1ccc1cnc(Nc3ccc(N4CCNCC4)cc3OC)nc12` [Example 97, N-(3,5-diethyl-1H-pyrazol-4-yl)-2-(2-methoxy-4-piperazin-1-yl-anilino)pyrimido[4,5-e]indolizine-7-carboxamide], the IC50 was under 50 nM.

Take `Cc1cccc(Cl)c1NC(=O)c1ccn2c1CCc1cnc(Nc3ccc(N4CCOCC4)nc3C)nc1-2` [Example 5, N-(2-chloro-6-methyl-phenyl)-2-[(2-methyl-6-morpholino-3-pyridyl)amino]-5,6-dihydropyrimido[4,5-e]indolizine-7-carboxamide]: the IC50 was under 50 nM.

Regarding `CCc1n[nH]c(CC)c1NC(=O)c1ccn2c1CCc1cnc(Nc3ccc(N4CCNCC4)cc3OC)nc1-2` [Example 18, N-(3,5-diethyl-1H-pyrazol-4-yl)-2-(2-methoxy-4-piperazin-1-ylanilino)-5,6-dihydropyrimido[4,5-e]indolizine-7-carboxamide], the IC50 was under 50 nM.

Take `COCCn1nc(C)c(NC(=O)c2ccn3c2CCc2cnc(Nc4ccc(N5CCN(C)CC5)cc4OC)nc2-3)c1C` [Example 26, N-[1-(2-methoxyethyl)-3,5-dimethyl-pyrazol-4-yl]-2-[2-methoxy-4-(4-methylpiperazin-1-yl)anilino]-5,6-dihydropyrimido[4,5-e]indolizine-7-carboxamide]: the IC50 fell in the range of 50 to 150 nM.

As to `COc1cc(C(=O)NC2CC2)ccc1Nc1ncc2c(n1)-n1ccc(C(=O)Nc3c(C)cccc3C)c1CC2` [Example 126, 2-[4-(cyclopropylcarbamoyl)-2-methoxy-anilino]-N-(2,6-dimethylphenyl)-5,6-dihydropyrimido[4,5-e]indolizine-7-carboxamide], the IC50 was under 50 nM.

Consider `COCCn1nc(C)c(NC(=O)c2ccn3c2CCc2cnc(Nc4ccc(OC5CCN(C)CC5)cc4OC)nc2-3)c1C` [Example 44, N-[1-(2-methoxyethyl)-3,5-dimethyl-pyrazol-4-yl]-2-[2-methoxy-4-[(1-methyl-4-piperidyl)oxy]anilino]-5,6-dihydropyrimido[4,5-e]indolizine-7-carboxamide], for which the IC50 was in the range of 50 to 150 nM.

On to `COc1cc(C(=O)N[C@@H]2CCNC[C@@H]2F)ccc1Nc1ncc2c(n1)-n1ccc(C(=O)Nc3c(C)cccc3C)c1CC2` [Example 118, N-(2,6-dimethylphenyl)-2-[4-[[(3S,4R)-3-fluoro-4-piperidyl]carbamoyl]-2-methoxy-anilino]-5,6-dihydropyrimido[4,5-e]indolizine-7-carboxamide], for which the IC50 was under 50 nM.

Take `CCN1CCCN(C(=O)c2ccc(Nc3ncc4c(n3)-n3ccc(C(=O)Nc5c(C)cccc5C)c3CC4)c(OC)c2)CC1` [Example 124, N-(2,6-dimethylphenyl)-2-[4-(4-ethyl-1,4-diazepane-1-carbonyl)-2-methoxy-anilino]-5,6-dihydropyrimido[4,5-e]indolizine-7-carboxamide]: the IC50 is under 50 nM.

For the molecule `COc1cc(N2CCN(C)CC2)ccc1Nc1ncc2c(n1)-n1ccc(C(=O)Nc3c(C)cccc3Br)c1CC2` [Example 73, N-(2-bromo-6-methyl-phenyl)-2-[2-methoxy-4-(4-methylpiperazin-1-yl)anilino]-5,6-dihydropyrimido[4,5-e]indolizine-7-carboxamide], the IC50 is under 50 nM.

Turning to `COCCn1nc(C)c(NC(=O)c2ccn3c2CCc2cnc(Nc4ccc(OC5CNC5)cc4OC)nc2-3)c1C` [Example 91, 2-[4-(Azetidin-3-yloxy)-2-methoxy-anilino]-N-[1-(2-methoxyethyl)-3,5-dimethyl-pyrazol-4-yl]-5,6-dihydropyrimido[4,5-e]indolizine-7-carboxamide], the IC50 was in the range of 50 to 150 nM.

`Cc1cc(N2CCOCC2)ncc1Nc1ncc2c(n1)-n1ccc(C(=O)Nc3c(C)cccc3C)c1CC2` [Example 34, N-(2,6-dimethylphenyl)-2-[(4-methyl-6-morpholino-3-pyridyl)amino]-5,6-dihydropyrimido[4,5-e]indolizine-7-carboxamide]: the IC50 was 50 to 150 nM.

On to `Cc1cccc(Cl)c1NC(=O)c1ccn2c1CCc1cnc(Nc3ccc(N4CCN(C)CC4)cc3OC(F)F)nc1-2` [Example 86, N-(2-chloro-6-methyl-phenyl)-2-[2-(difluoromethoxy)-4-(4-methylpiperazin-1-yl)anilino]-5,6-dihydropyrimido[4,5-e]indolizine-7-carboxamide], for which the IC50 is under 50 nM.

`COc1cc(N2CCN(C)CC2)ccc1Nc1ncc2c(n1)-n1ccc(C(=O)Nc3c(C(C)C)cccc3C(C)C)c1CC2` [Example 11, N-(2,6-diisopropylphenyl)-2-[2-methoxy-4-(4-methylpiperazin-1-yl)anilino]-5,6-dihydropyrimido[4,5-e]indolizine-7-carboxamide]: the IC50 was in the range of 50 to 150 nM.

For the molecule `COc1cc(N2CCN(C(=O)NC(C)C)CC2)ccc1Nc1ncc2c(n1)-n1ccc(C(=O)Nc3c(C)cccc3C)c1CC2` [Example 145, N-(2,6-dimethylphenyl)-2-[4-[4-(isopropylcarbamoyl)piperazin-1-yl]-2-methoxy-anilino]-5,6-dihydropyrimido[4,5-e]indolizine-7-carboxamide], the IC50 was under 50 nM.

As for `CCc1cccc(CC)c1NC(=O)c1ccn2c1CCc1cnc(Nc3ccc(C(=O)NC4CCN(C)CC4)cc3C)nc1-2` [Example 36, N-(2,6-diethylphenyl)-2-[2-methyl-4-[(1-methyl-4-piperidyl)carbamoyl]anilino]-5,6-dihydropyrimido[4,5-e]indolizine-7-carboxamide], the IC50 was 50 to 150 nM.

As for `COc1cc(OC2CCN(C)C2)ccc1Nc1ncc2c(n1)-n1ccc(C(=O)Nc3c(C)cccc3C)c1CC2` (stereo not shown) [Example 84, N-(2,6-dimethylphenyl)-2-[2-methoxy-4-(1-methylpyrrolidin-3-yl)oxy-anilino]-5,6-dihydropyrimido[4,5-e]indolizine-7-carboxamide], the IC50 was under 50 nM.

For the molecule `CCc1cccc(CC)c1NC(=O)c1ccn2c1CCc1cnc(Nc3ccc(OCCOC)cc3OC)nc1-2` [Example 136, N-(2,6-diethylphenyl)-2-[2-methoxy-4-(2-methoxyethoxy)anilino]-5,6-dihydropyrimido[4,5-e]indolizine-7-carboxamide], the IC50 was 50 to 150 nM.

As to `Cc1cc(N2CCOCC2)ccc1Nc1ncc2c(n1)-n1ccc(C(=O)Nc3c(C)cccc3C)c1CC2` [Example 56, N-(2,6-dimethylphenyl)-2-(2-methyl-4-morpholino-anilino)-5,6-dihydropyrimido[4,5-e]indolizine-7-carboxamide], the IC50 was under 50 nM.

For the molecule `CCc1cccc(C)c1NC(=O)c1ccn2c1CCc1cnc(Nc3ccc(OC4CCN(C)CC4)cc3OC)nc1-2` [Example 40, N-(2-ethyl-6-methyl-phenyl)-2-[2-methoxy-4-[(1-methyl-4-piperidyl)oxy]anilino]-5,6-dihydropyrimido[4,5-e]indolizine-7-carboxamide], the IC50 was under 50 nM.

On to `CCOc1cc(N2CCN(C)CC2)ccc1Nc1ncc2c(n1)-n1ccc(C(=O)Nc3c(CC)n[nH]c3CC)c1CC2` [Example 31, N-(3,5-diethyl-1H-pyrazol-4-yl)-2-[2-ethoxy-4-(4-methylpiperazin-1-yl)anilino]-5,6-dihydropyrimido[4,5-e]indolizine-7-carboxamide], for which the IC50 lay in the range of 50 to 150 nM.

For the molecule `CCc1cccc(CC)c1NC(=O)c1ccn2c1CCc1cnc(Nc3ccc(OC4CCN(C)C4)cc3OC)nc1-2` (stereo not shown) [Example 59, N-(2,6-diethylphenyl)-2-[2-methoxy-4-(1-methylpyrrolidin-3-yl)oxy-anilino]-5,6-dihydropyrimido[4,5-e]indolizine-7-carboxamide], the IC50 is under 50 nM.

As to `COCCn1nc(C)c(NC(=O)c2ccn3c2CCc2cnc(Nc4ccc(-c5c(C)nn(C)c5C)cc4OC)nc2-3)c1C` [Example 94, N-[1-(2-methoxyethyl)-3,5-dimethyl-pyrazol-4-yl]-2-[2-methoxy-4-(1,3,5-trimethylpyrazol-4-yl)anilino]-5,6-dihydropyrimido[4,5-e]indolizine-7-carboxamide], the IC50 is under 50 nM.
